Columns and labels:
[1] = test system: Z138 mantle cell lymphoma tumour cell lines; test: In vitro cytotoxicity, MTT assay; assay type: cell-based; settings: Homo sapiens, Z-138, 96 h, Z138 cells exposed to the test compounds for 96 hours; cell viability vs DMSO treated cells
Procedure: The cytotoxicity studies were evaluated by MTT [3-(4,5-dimethylthiazol-2-yl)-2,5-diphenyltetrazolium bromide] assay and carried out on Z138 mantle cell lymphoma tumour cell lines. The cells are distributed onto microplates and exposed to the test compounds for 96 hours. MTT is then added for 4 hours and converted by NAD(P)H-dependent cellular oxidoreductase enzymes in formazan, which has a purple color. The viable cell number is proportional to the production of formuan salts and cell viability can be quantified by the absorbance of the solution at 540 nm with a speetrophotometer (Carmichael et al., Cancer Res. 1987, 47, 936-942).

[2] = molecular target: T1, His-His-USP7 (aa208-560, |C315A|) (Homo sapiens, UniProt Q93009, C315A); test: Evaluation of the inhibition of USP7 by the Fluorescence Intensity (FLINT) readings; assay type: biochemical; settings: 0.25 nM His-His-USP7, compound incubated 60 minutes at 30° C., 500 nM Ubiquitin-Rhodamine-110 substrate; 50% reduction in kinetic rate
T1 construct: His-His-USP7 (aa208-560, |C315A|); His-His (N)
Summary of the method: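 0.25 nM His-His-USP7 (aa208–560, C315A) preincubated 60 min at 30 °C with compound in 100 mM Bicine pH 8.0, 0.01% Triton X-100, 1 mM TCEP, 10% DMSO. Reaction started with 500 nM ubiquitin-rhodamine-110 and fluorescence (Ex485/Em535) read every 3 min for 21 min. IC50 derived from kinetic-rate reduction over an 11-point curve, 4-parameter fit.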

T1 sequence (Q93009 208-560 C315A): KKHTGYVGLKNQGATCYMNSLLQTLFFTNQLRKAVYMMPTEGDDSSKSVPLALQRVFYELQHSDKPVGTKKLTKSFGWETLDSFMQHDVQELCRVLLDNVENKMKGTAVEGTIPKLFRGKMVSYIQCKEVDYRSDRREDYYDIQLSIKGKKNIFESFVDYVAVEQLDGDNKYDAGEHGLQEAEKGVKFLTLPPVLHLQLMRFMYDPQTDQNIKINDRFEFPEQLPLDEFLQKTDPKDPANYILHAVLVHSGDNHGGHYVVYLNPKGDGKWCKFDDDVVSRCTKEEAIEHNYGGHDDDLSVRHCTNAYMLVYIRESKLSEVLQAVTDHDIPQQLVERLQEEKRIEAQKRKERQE

Row | Structure (SMILES) | IC50 [1] [µM] | IC50 [2] [nM]
1 | NCc1ccc(Oc2ncn(CC3(O)CCN(C(=O)[C@@H]4CCC(F)(F)C[C@H]4c4ccccc4)CC3)c(=O)c2N)cc1Cl [Example 66, 5-amino-6-[4-(aminomethyl)-3-chlorophenoxy]-3-({1-[(1R,2R)-4,4-difluoro-2-phenylcyclohexane-1-carbonyl]-4-hydroxypiperidin-4-yl}methyl)pyrimidin-4(3H)-one] | 0.301 | 11
2 | Nc1c(Oc2ccc(CNCc3ccccc3)cc2)ncn(CC2(O)CCN(C(=O)[C@@H]3CCC(F)(F)C[C@H]3c3ccccc3)CC2)c1=O [Example 76, 5-amino-6-{4-[(benzylamino)methyl]phenoxy}-3-({1-[(1R,2R)-4,4-difluoro-2-phenylcyclohexane-1-carbonyl]-4-hydroxypiperidin-4-yl}methyl)pyrimidin-4(3H)-one] | 0.4 | 15
3 | CO[C@]1(C#Cc2cccnn2)CC[C@@H](C(=O)N2CC[C@](O)(Cn3cnc(Oc4ccc(F)cc4)c(N)c3=O)C(F)(F)C2)[C@H](c2ccccc2)C1 [Example 165, 5-amino-3-{[(4S)-3,3-difluoro-4-hydroxy-1-{[(1R,2R,4R)-4-methoxy-2-phenyl-4-[2-(pyridazin-3-yl)ethynyl]cyclohexyl]carbonyl}piperidin-4-yl]methyl}-6-(4-fluorophenoxy)pyrimidin-4-one] | 0.00415 | 5.57
4 | Cc1cccc(Oc2ncn(CC3(O)CCN(C(=O)[C@@H]4CCC(F)(F)C[C@H]4c4ccccc4)CC3)c(=O)c2N)c1 [Example 19, 5-amino-3-({1-[(1R,2R)-4,4-difluoro-2-phenylcyclohexane-1-carbonyl]-4-hydroxypiperidin-4-yl}methyl)-6-(3-methylphenoxy)pyrimidin-4(3H)-one] | 0.0716 | 83.1
5 | COc1cnnc(C#C[C@@]2(OC)CC[C@@H](C(=O)N3CC[C@](O)(Cn4cnc(Oc5ccc(F)cc5)c(N)c4=O)C(F)(F)C3)C(c3ccccc3)C2)c1 (stereo partly drawn) [Example 173, 5-amino-3-{[(4S)-3,3-difluoro-4-hydroxy-1-[(1R,4R)-4-methoxy-4-[2-(5-methoxypyridazin-3-yl)ethynyl]-2-phenylcyclohexanecarbonyl]piperidin-4-yl]methyl}-6-(4-fluorophenoxy)-3,4-dihydropyrimidin-4-one] | 0.00521 | 14.6
6 | CO[C@]1(C#Cc2cncnc2)CC[C@@H](C(=O)N2CC[C@](O)(Cn3cnc(Oc4ccc(F)cc4)c(N)c3=O)C(F)(F)C2)[C@H](c2ccccc2)C1 [Example 175, 5-amino-3-{[(4S)-3,3-difluoro-4-hydroxy-1-[(1R,2R,4R)-4-methoxy-2-phenyl-4-[2-(pyrimidin-5-yl)ethynyl]cyclohexanecarbonyl]piperidin-4-yl]methyl}-6-(4-fluorophenoxy)-3,4-dihydropyrimidin-4-one] | 0.00998 | 54
7 | Nc1cc(Oc2ncn(CC3(O)CCN(C(=O)[C@@H]4CCC(F)(F)C[C@H]4c4ccccc4)CC3)c(=O)c2N)ccc1F [Example 119, 5-amino-6-(3-amino-4-fluorophenoxy)-3-({1-[(1R,2R)-4,4-difluoro-2-phenylcyclohexane-1-carbonyl]-4-hydroxypiperidin-4-yl}methyl)pyrimidin-4(3H)-one] | 0.0613 | 38
8 | N#CCc1ccc(Oc2ncn(CC3(O)CCN(C(=O)[C@@H]4CCC(F)(F)C[C@H]4c4ccccc4)CC3)c(=O)c2N)cc1 [Example 117, (4-{[5-amino-1-({1-[(1R,2R)-4,4-difluoro-2-phenylcyclohexane-1-carbonyl]-4-hydroxypiperidin-4-yl}methyl)-6-oxo-1,6-dihydropyrimidin-4-yl]oxy}phenyl)acetonitrile] | 0.617 | 82.2
9 | Nc1c(Oc2cccc(Br)c2)ncn(CC2(O)CCN(C(=O)[C@@H]3CCC(F)(F)C[C@H]3c3ccccc3)CC2)c1=O [Example 20, 5-amino-6-(3-bromophenoxy)-3-([1-{(1R,2R)-4,4-difluoro-2-phenylcyclohexane-1-carbonyl]-4-hydroxypiperidin-4-yl}methyl)pyrimidin-4(3H)-one] | 0.146 | 105
10 | Nc1c(Oc2ccc(F)cc2)ncn(C[C@@]2(O)CCN(C(=O)[C@@H]3CC[C@](F)(C#Cc4cccnn4)C[C@H]3c3ccccc3)CC2(F)F)c1=O [Example 168, 5-amino-3-{[(4S)-3,3-difluoro-1-{[(1R,2R,4R)-4-fluoro-2-phenyl-4-[2-(pyridazin-3-yl)ethynyl]cyclohexyl]carbonyl}-4-hydroxypiperidin-4-yl]methyl}-6-(4-fluorophenoxy)pyrimidin-4-one] | 0.00157 | 3.48
11 | CNc1c(Oc2ccccc2)ncn(CC2(O)CCN(C(=O)[C@@H]3CCC(F)(F)C[C@H]3c3ccccc3)CC2)c1=O [Example 9, 3-({1-[(1R4R)-4,4-difluoro-2-phenylcyclohexane-1-carbonyl]-4-hydroxypiperidin-4-yl}methyl)-5-(methylamino)-6-phenoxypyrimidin-4(3H)-one] | 0.287 | 85.8
12 | Cc1ccc(Oc2ncn(CC3(O)CCN(C(=O)[C@@H]4CCC(F)(F)C[C@H]4c4ccccc4)CC3)c(=O)c2N)cc1O [Example 111, 5-amino-3-({1-[(1R,2R)-4,4-difluoro-2-phenylcyclohexane-1-carbonyl]-4-hydroxypiperidin-4-yl}methyl)-6-(3-hydroxy-4-methylphenoxy)pyrimidin-4(3H)-one] | 0.0588 | 22.1
13 | Nc1c(Oc2ccc(F)cc2)ncn(CC2(O)CCN(C(=O)[C@@H]3CC[C@](F)(C#Cc4cnccn4)C[C@H]3c3ccccc3)CC2)c1=O [Example 138, 5-amino-3-({1-[(1R,2R,4R)-4-fluoro-2-phenyl-4-[2-(pyrazin-2-yl)ethynyl]cyclohexanecarbonyl]-4-hydroxypiperidin-4-yl}methyl)-6-(4-fluorophenoxy)-3,4-dihydropyrimidin-4-one] | 0.00657 | 20.3
14 | Nc1c(Oc2ccc(CNCC(F)(F)F)cc2)ncn(CC2(O)CCN(C(=O)[C@@H]3CCC(F)(F)C[C@H]3c3ccccc3)CC2)c1=O [Example 73, 5-amino-3-({1-[(1R,2R)-4,4-difluoro-2-phenylcyclohexane-1-carbonyl]-4-hydroxypiperidin-4-yl}methyl)-6-(4-[[(2,2,2-trifluoromethyl)amino]methyl]phenoxy)pyrimidin-4(3H)-one] | 0.564 | 113
15 | Nc1c(Oc2ccc3c(c2)OCO3)ncn(CC2(O)CCN(C(=O)[C@@H]3CCC(F)(F)C[C@H]3c3ccccc3)CC2)c1=O [Example 14] | 0.0413 | 71.8
16 | N#Cc1ccc(Oc2ncn(CC3(O)CCN(C(=O)[C@@H]4CCC(F)(F)C[C@H]4c4ccccc4)CC3)c(=O)c2N)cc1 [Example 24, 4-{[5-amino-1-({1-[(1R,2R)-4,4-difluoro-2-phenylcyclohexane-1-carbonyl]-4-hydroxypiperidin-4-yl}methyl)-6-oxo-1,6-dihydropyrimidin-4-yl]oxy}benzonitrile] | 0.165 | 30
17 | Nc1c(Oc2ccc(CC(F)F)cc2)ncn(CC2(O)CCN(C(=O)[C@@H]3CCC(F)(F)C[C@H]3c3ccccc3)CC2)c1=O [Example 38, 5-amino-6-[4-(2,2-difluoroethyl)phenoxy]-3-({1-[(1R,2R)-4,4-difluoro-2-phenylcyclohexane-1-carbonyl]-4-hydroxypiperidin-4-yl}methyl)pyrimidin-4(3H)-one] | 0.128 | 63.9
18 | Nc1c(Oc2ccc3c(c2)CCNC3)ncn(CC2(O)CCN(C(=O)[C@@H]3CCC(F)(F)C[C@H]3c3ccccc3)CC2)c1=O [Example 31, 5-amino-3-({1-[(1R,2R)-4,4-difluoro-2-phenylcyclohexane-1-carbonyl]-4-hydroxypiperidin-4-yl}methyl)-6-[(1,2,3,4-tetrahydroisoquinolin-6-yl)oxy]pyrimidin-4(3H)-one] | 0.648 | 47
19 | Nc1c(Oc2ccc(CCO)cc2)ncn(CC2(O)CCN(C(=O)[C@@H]3CCC(F)(F)C[C@H]3c3ccccc3)CC2)c1=O [Example 36, 5-amino-3-({1-[(1R,2R)-4,4-difluoro-2-phenylcyclohexane-1-carbonyl]-4-hydroxypiperidin-4-}methyl)-6-[4-(2-hydroxyethyl)phenoxy]pyrimdin-4(3H)-one] | 0.035 | 29
20 | Cn1ccnc1C#C[C@@]1(F)CC[C@@H](C(=O)N2CCC(O)(Cn3cnc(Oc4ccc(F)cc4)c(N)c3=O)CC2)[C@H](c2ccccc2)C1 [Example 149, 5-amino-3-[(1-{[(1R,2R,4R)-4-fluoro-4-[2-(1-methylimidazol-2-yl)ethynyl]-2-phenylcyclohexyl]carbonyl}-4-hydroxypiperidin-4-yl)methyl]-6-(4-fluorophenoxy)pyrimidin-4-one] | 0.259 | 8.55
21 | CO[C@]1(C#Cc2cncnc2)CC[C@@H](C(=O)N2CCC(O)(Cn3cnc(Oc4ccc(F)cc4)c(N)c3=O)CC2)[C@H](c2ccccc2)C1 [Example 139, 5-amino-6-(4-fluorophenoxy)-3-[(4-hydroxy-1{[(1R, 2R,4R)-4-methoxy-2-phenyl-4-[2-(pyrimidin-5-yl)ethynyl]cyclohexyl]carbonyl}piperidin-4-yl)methyl]pyrimidin-4-one] | 0.0291 | 49.7
